# Laboratory results: PubChem BioAssay AID1963844 (Molecular Pharmacology Branch, DTP, NCI, 2024)
# Test system: 422866-222-R5-J1-PDC complex spheroid viability
# Test: Anticancer human tumor 422866-222-R5-J1-PDC patient-derived pancreatic adenocarcinoma cell line growth inhibition [POLQ]
# Conditions: for IC50: curve of first compound; for viability, T/C: stronger effect = lower value
# In short: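 PDC + HUVEC + MSC complex spheroids; POLQ inhibitors ± partner drugs; top conc. at/near clinical Cmax, else 10 microM (SN-38 1 microM), half-log dilutions; 37 degrees C, 5% CO2.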
# 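Also: spheroids exposed to compounds for one week before readout.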
# 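For viability, T/C in this document: percent of DMSO vehicle wells luminescence so 100% = untreated viability.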
smiles,measurement,setting,value
CC(C)n1c(=O)n(C)c2cnc3cc(F)c(-c4ccc(OCCCN5CCCCC5)nc4)cc3c21 + Nc1ccc(C#CCN(C(=O)Cc2ncc(C(F)(F)F)cc2C(F)(F)F)c2ccc(F)cc2)nn1,IC50,second compound 0.0316 µM,> 10 µM
same,IC50,second compound 0.1 µM,> 10 µM
same,IC50,second compound 0.316 µM,> 10 µM
same,IC50,second compound 1 µM,> 10 µM
same,IC50,second compound 3.16 µM,> 10 µM
same,IC50,second compound 10 µM,9.87 µM
same,"viability, T/C","second compound 0.0316 µM, first compound 0.0316 µM",116%
same,"viability, T/C","second compound 0.0316 µM, first compound 0.1 µM",116%
same,"viability, T/C","second compound 0.0316 µM, first compound 0.316 µM",90.3%
same,"viability, T/C","second compound 0.0316 µM, first compound 1 µM",99.3%
same,"viability, T/C","second compound 0.0316 µM, first compound 3.16 µM",90.7%
same,"viability, T/C","second compound 0.0316 µM, first compound 10 µM",62.2%
same,"viability, T/C","second compound 0.1 µM, first compound 0.0316 µM",88.6%
same,"viability, T/C","second compound 0.1 µM, first compound 0.1 µM",102%
same,"viability, T/C","second compound 0.1 µM, first compound 0.316 µM",97.5%
same,"viability, T/C","second compound 0.1 µM, first compound 1 µM",88.3%
same,"viability, T/C","second compound 0.1 µM, first compound 3.16 µM",82.8%
same,"viability, T/C","second compound 0.1 µM, first compound 10 µM",66.2%
same,"viability, T/C","second compound 0.316 µM, first compound 0.0316 µM",114%
same,"viability, T/C","second compound 0.316 µM, first compound 0.1 µM",109%
same,"viability, T/C","second compound 0.316 µM, first compound 0.316 µM",95.1%
same,"viability, T/C","second compound 0.316 µM, first compound 1 µM",105%
same,"viability, T/C","second compound 0.316 µM, first compound 3.16 µM",71.8%
same,"viability, T/C","second compound 0.316 µM, first compound 10 µM",53.3%
same,"viability, T/C","second compound 1 µM, first compound 0.0316 µM",107%
same,"viability, T/C","second compound 1 µM, first compound 0.1 µM",110%
same,"viability, T/C","second compound 1 µM, first compound 0.316 µM",108%
same,"viability, T/C","second compound 1 µM, first compound 1 µM",91.2%
same,"viability, T/C","second compound 1 µM, first compound 3.16 µM",85.2%
same,"viability, T/C","second compound 1 µM, first compound 10 µM",59.1%
same,"viability, T/C","second compound 3.16 µM, first compound 0.0316 µM",100%
same,"viability, T/C","second compound 3.16 µM, first compound 0.1 µM",105%
same,"viability, T/C","second compound 3.16 µM, first compound 0.316 µM",114%
same,"viability, T/C","second compound 3.16 µM, first compound 1 µM",76.4%
same,"viability, T/C","second compound 3.16 µM, first compound 3.16 µM",71.3%
same,"viability, T/C","second compound 3.16 µM, first compound 10 µM",60.8%
same,"viability, T/C","second compound 10 µM, first compound 0.0316 µM",96.8%
same,"viability, T/C","second compound 10 µM, first compound 0.1 µM",110%
same,"viability, T/C","second compound 10 µM, first compound 0.316 µM",87.9%
same,"viability, T/C","second compound 10 µM, first compound 1 µM",92.5%
same,"viability, T/C","second compound 10 µM, first compound 3.16 µM",94.4%
same,"viability, T/C","second compound 10 µM, first compound 10 µM",49.5%
